Data as given in patent US20260165988A1, “PHARMACEUTICAL COMPOSITION FOR PREVENTING OR TREATING HEARING LOSS COMPRISING AMMONIUM LACTATE AS ACTIVE INGREDIENT” (KOREA UNIVERSITY RESEARCH AND BUSINESS FOUNDATION, priority 2022, published 2026).

Test system: hair cells in the lateral line of zebrafish
Experiment: Analysis of hair cells in zebrafish larvae: protection against gentamicin-induced hair cell damage
Assay type: in vivo
Description: Zebrafish larvae (Wild type, Brn3c: EGFP, etc.) were cultured in the breeding room of our research institute. Each larva was cultured in embryo medium (15 mM NaCl, 0.5 mM KCl, 1 mM CaCl2, 1 mM MgSO4, 0.15 mM KH2PO4, 0.05 mM […], and 0.7 mM NaHCO3).
Gentamicin, an ototoxicity-inducing substance, was administered to zebrafish 5 days after fertilization, and the concentration of […] (LC 50) that induces 50% damage to hair cells in the lateral line of zebrafish as well as the time were determined. In the study results, 50 μM gentamicin was chosen since approximately 50% of the hair cells were damaged when administered for 1 hour. The effect was observed when 10 μM, 100 μM, 500 μM, and 1000 μM ammonium lactate were co-administered with 50 μM gentamicin for 1 hour.
There were four sites in hair cells of zebrafish, including orbits (SO1 and SO2), ear (O1), and larynx (OC1), and the number of hair cells was analyzed using a microscope (fluorescence microscope, confocal microscope, etc.). The effects of candidate substances capable of suppressing damage to hair cells caused by gentamicin were compared and analyzed by administering the candidate substances to zebrafish larvae at different concentrations.
To verify the protective effect of ammonium lactate on hair cells in zebrafish, ammonium lactate and gentamicin were co-administered to zebrafish, and the viability of hair cells was compared with that of the control group.

Compound | viability of hair cells (trend) (10 μM, 100 μM, 500 μM and 1000 μM ammonium lactate co-administered with 50 μM gentamicin) | increase in the viability of hair cells (100 μM ammonium lactate + 50 μM gentamicin) | number of hair cells (100 μM ammonium lactate co-administered with 50 μM gentamicin for 1 hour, gentamicin only 26) | increase in the viability of hair cells (500 μM ammonium lactate + 50 μM gentamicin) | number of hair cells (500 μM ammonium lactate co-administered with 50 μM gentamicin for 1 hour, gentamicin only 26) | increase in the viability of hair cells (1000 μM ammonium lactate + 50 μM gentamicin) | number of hair cells (1000 μM ammonium lactate co-administered with 50 μM gentamicin for 1 hour, gentamicin only 26) | protective effect on hair cells (conclusion) (zebrafish, gentamicin-induced damage) | hair cells damaged (50 μM gentamicin administered for 1 hour, zebrafish 5 days after fertilization) | decrease in the viability of hair cells (50 μM gentamicin only vs untreated control) | number of hair cells (50 μM gentamicin only, no ammonium lactate, untreated control 53)
CC(O)C(=O)O.N (centres unmarked) [ammonium lactate] | increased in a concentration-dependent manner | approximately 10% | 28 | approximately 10% | 29 | ≥ 60% | 42 | has a protective effect on hair cells |  |  | 
gentamicin [reference compound] |  |  |  |  |  |  |  |  | approximately 50% | 50% | 26
